Reference: patent US20220257491A1, “Prebiotic Oral Care Compositions and Methods” (Colgate-Palmolive Company, priority 2021, published 2022)
Marks after values point to notes of the source that are not given here.

Tests used:
Type in all cases: cell-based
[1] = tested on: S. sobrinus; assay: Multi-species biofilm composition: absolute abundance of S. sobrinus; conditions: mean±SD n=3
Protocol: (§1) Biofilms are grown vertically on Calcium Deficient Hydroxyapatite (CAD-HA) disks (Hitemco Medical, Old Bethpage, USA) using the Amsterdam Active Adhesion model. Biofilms are allowed to establish during 24 h (37° C., 170 rpm) under micro-aerophilic conditions (6% O2, 7% CO2, 7% H2, 80% N2). After this 24 h, disks are rinsed 3 times a day for 3 minutes (RT, 250 rpm), for 3 consecutive days, by transferring the lid containing the disks to a new 24-well plate containing 2 mL/well of the appropriate substrate solution. As a negative control, PBS (pH 5.7) without substrate supplementation is used. After each rinsing step, disks are shortly dip-rinsed in a new 24-well plate containing fresh modified BHI medium (2 mL/well) to remove remaining substrate traces. Subsequently, the lid is transferred to another 24-well plate containing fresh modified BHI medium (2 mL/well), followed by incubation (micro-aerophilic, 37° C., 170 rpm) until the next rinsing step.
(§2) NADM, N-acetyl-D-glucosamine (“NADG”) and D-(+)-mannose are selected to determine their effects on multi-species biofilm composition. […] decrease in absolute numbers in at least four of the pathogenic bacterial species tested in the assay, compared to the control, the results of which are described in Table 1 below. Absolute abundances of bacterial species are shown as mean±SD (n=3) logarithmic values of the genome equivalents per millilitre (log(Geq/mL)).

[2] = tested on: A. viscosus; assay: Multi-species biofilm composition: absolute abundance of A. viscosus; conditions: mean±SD n=3
Protocol: as §1, §2

[3] = tested on: P. intermedia; assay: Multi-species biofilm composition: absolute abundance of P. intermedia; conditions: mean±SD n=3
Protocol: as §1
(§3) NADM, N-acetyl-D-glucosamine (“NADG”) and D-(+)-mannose are selected to determine their effects on multi-species biofilm composition. Repeated rinsing of the biofilms with the substrates at a concentration of 1M results in a significant decrease in absolute numbers in at least four of the pathogenic bacterial species tested in the assay, compared to the control, the results of which are described in Table 1 below. Absolute abundances of bacterial species are shown as mean±SD (n=3) logarithmic values of the genome equivalents per millilitre (log(Geq/mL)).

[4] = tested on: F. nucleatum virulence genes; assay: Multi-species biofilm virulence gene expression, SYBR RT-qPCR: F. nucleatum; conditions: for Fold Change in virulence gene expression: ABC transp. perm. / Fold Change in virulence gene expression: EF-G / Fold Change in virulence gene expression: but.-coA transf. / Fold Change in virulence gene expression: hemin receptor / Fold Change in virulence gene expression: hemolysin / Fold Change in virulence gene expression: ompA / Fold Change in virulence gene expression: transposase: relative to control (=1), 2^-ΔΔCt, geometric mean n=3
Protocol: as §1
The expression of 33 virulence genes from 4 periodontal pathogens is analysed to evaluate the relative virulence of the substrate-treated biofilms. For all three substrates, virulence gene expression is determined relatively to the control, and these values are also compared between substrates when this is relevant (Tables 5a-5d).

[5] = tested on: P. gingivalis; assay: Multi-species biofilm composition: absolute abundance of P. gingivalis; conditions: for Absolute abundance Pg (P. gingivalis): mean±SD n=3
Protocol: as §1, §2

[6] = tested on: A. naeslundii; assay: Multi-species biofilm composition: absolute abundance of A. naeslundii; conditions: mean±SD n=3
Protocol: as §1, §3

[7] = tested on: S. gordonii; assay: Multi-species biofilm composition: absolute abundance of S. gordonii; conditions: mean±SD n=3
Protocol: as §1, §3

[8] = tested on: human oral keratinocytes (HOK-18A); assay: IL-8 levels in supernatants of keratinocyte cultures exposed to substrate-treated biofilms; conditions: mean±SD n=3
Protocol: Cultures of immortalized human oral keratinocytes (HOK-18A) are grown. The relative inflammatory potential of the substrate-treated multi-species biofilms is evaluated by analyzing the expression of five inflammatory mediator genes in human oral keratinocytes (HOKs) exposed to the substrate-treated biofilms. […] The IL-8 levels in the cellular supernatant are determined as well. RNA is converted to cDNA and relative expression of inflammatory mediator genes is determined as described above with respect to the cellular housekeeping gene (3-actin.
Table 7: IL-8 levels detected in the supernatants of human oral keratinocytes (HOK-18A) cultures exposed to substrate-treated multi-species biofilms are shown as mean±SD (n=3) values (pg/mL). All substrates are dissolved in PBS at a concentration of 1 M (upper part) or 1% (w/v) (lower part). Values between 0 and 1 represent relative downregulation, values >1 represent relative upregulation. […] For such values, statistically significant differences between two experimental conditions are marked with ‘#1’ (vs. NADM), ‘#2’ (vs. NADG), ‘#3’ (vs. D-(+)-mannose) (P<0.05).

[9] = tested on: S. oralis; assay: Multi-species biofilm composition: absolute abundance of S. oralis; conditions: mean±SD n=3
Protocol: as §1, §2

[10] = tested on: multi-species biofilms; assay: Multi-species biofilm organic acid balances (supernatant); conditions: >0 production, <0 consumption, mean±SD n=3
Protocol: as §1
To examine the effect of NADM and the influence of the orientation and absence/presence of the N-acetyl group on organic acid production and consumption, supernatant samples from substrate-treated or untreated multi-species biofilms are analysed. […] When comparing relevant significant differences between substrate conditions, an increase in acetate production is observed for NADM compared to D-(+)-mannose (3084±174 vs. 1934±56 mg/L).

[11] = tested on: multi-species biofilm; assay: Relative multi-species biofilm composition (groups of bacterial species); conditions: for Relative abundance Beneficials/Commensals / Relative abundance Cariogenic Pathogens / Relative abundance Periodontal Pathogens / Relative abundance Beneficial or commensals: mean±SD n=3
Protocol: as §1, §2
Relative abundances of the different groups (beneficial/commensals, periodontal pathogens, cariogenic pathogens) of bacterial species are shown as mean±SD (n=3) percentage of the genome equivalents per millilitre (% (Geq/mL)). […] NADM: N-acetyl-D-mannosamine; NADG: N-acetyl-D-glucosamine.

[12] = tested on: S. salivarius; assay: Multi-species biofilm composition: absolute abundance of S. salivarius; conditions: mean±SD n=3
Protocol: as §1, §3

[13] = substrate 1 M, listed as D-(+)-mannose
[14] = substrate 1%(w/v) in PBS, listed as D-(+)-mannose
[15] = substrate 1 M in PBS, listed as D-(+)-mannose

Compound: O=C[C@@H](O)[C@@H](O)[C@H](O)[C@H](O)CO [D-mannose, D-(+)-mannose]
- Absolute abundance S. sobrinus ([1]; substrate 1%(w/v) in PBS): 5.28 ± 0.44 log(Geq/mL)
- Absolute abundance S. sobrinus ([1]; substrate 1 M in PBS): 5.44 ± 0.31 log(Geq/mL)
- Absolute abundance Av (A. viscosus) ([2]; substrate 1%(w/v) in PBS): 8.00 ± 0.17 log(Geq/mL)
- Absolute abundance Av (A. viscosus) ([2]; substrate 1 M in PBS): 6.40 ± 0.48 log(Geq/mL)
- Absolute abundance Pi (P. intermedia) ([3]; substrate 1%(w/v) in PBS): 8.06 ± 0.19 log(Geq/mL)
- Absolute abundance Pi (P. intermedia) ([3]; substrate 1 M in PBS): 7.80 ± 0.57 log(Geq/mL)
- Fold Change in virulence gene expression: ABC transp. perm. ([4]; substrate 1%): 0.73 fold
- Fold Change in virulence gene expression: EF-G ([4]; substrate 1%): 0.13 fold
- Fold Change in virulence gene expression: but.-coA transf. ([4]; substrate 1%): 0.37 fold
- Fold Change in virulence gene expression: hemin receptor ([4]; substrate 1%): 0.26 fold
- Fold Change in virulence gene expression: hemolysin ([4]; substrate 1%): 0.89 fold
- Fold Change in virulence gene expression: ompA ([4]; substrate 1%): 1.17 fold
- Fold Change in virulence gene expression: transposase ([4]; substrate 1%): 1.38 fold
- F. nucleatum butyrate acetoacetate CoA transferase gene, upregulation ([4]; substrate 1 M): 2.3 fold
- F. nucleatum hemolysin gene, upregulation ([4]; substrate 1 M): 2.1 fold
- Fold Change in virulence gene expression: ABC transp. perm. ([4]; substrate 1M): 2.65 fold
- Fold Change in virulence gene expression: EF-G ([4]; substrate 1M): 1.36 fold
- Fold Change in virulence gene expression: but.-coA transf. ([4]; substrate 1M): 2.27 fold
- Fold Change in virulence gene expression: hemin receptor ([4]; substrate 1M): 3.82 fold
- Fold Change in virulence gene expression: hemolysin ([4]; substrate 1M): 2.14 fold
- Fold Change in virulence gene expression: ompA ([4]; substrate 1M): 1.36 fold
- Fold Change in virulence gene expression: transposase ([4]; substrate 1M): 1.46 fold
- Absolute abundance Pg (P. gingivalis) ([5]; substrate 1%(w/v) in PBS): 7.08 ± 0.17 log(Geq/mL)
- Difference in P. gingivalis amounts compared to NADG ([5]; substrate 1 M): −1.25 log(Geq/mL)
- Absolute abundance Pg (P. gingivalis) ([5]; substrate 1 M in PBS): 2.75 ± 0.08*^, #2 log(Geq/mL)
- Absolute abundance An (A. naeslundii) ([6]; substrate 1%(w/v) in PBS): 7.59 ± 0.05 log(Geq/mL)
- Absolute abundance An (A. naeslundii) ([6]; substrate 1 M in PBS): 5.54 ± 0.24 log(Geq/mL)
- Absolute abundance S. gord. (S. gordonii) ([7]; substrate 1%(w/v) in PBS): 8.29 ± 0.11 log(Geq/mL)
- Absolute abundance S. gord. (S. gordonii) ([7]; substrate 1 M in PBS): 9.19 ± 0.39 log(Geq/mL)
- IL-8 levels in supernatants of HOK-18A cultures ([8]; biofilm rinsed with substrate 1%(w/v)): 51.09 ± 13.89 pg/mL
- IL-8 levels in supernatants of HOK-18A cultures ([8]; biofilm rinsed with substrate 1M): 0.06 ± 0.04 pg/mL
- Absolute abundance S. oralis ([9]; substrate 1%(w/v) in PBS): 6.27 ± 0.21 log(Geq/mL)
- Absolute abundance S. oralis ([9]; substrate 1 M in PBS): 6.83 ± 0.09 log(Geq/mL)
- acetate level in biofilm supernatant ([10]; substrate 1%(w/v)): 352 ± 24 mg/L
- butyrate level in biofilm supernatant ([10]; substrate 1%(w/v)): 1985 ± 37 mg/L
- formate level in biofilm supernatant ([10]; substrate 1%(w/v)): 3717 ± 114 mg/L
- lactate level in biofilm supernatant ([10]; substrate 1%(w/v)): 125 ± 0 mg/L
- propionate level in biofilm supernatant ([10]; substrate 1%(w/v)): 1962 ± 28 mg/L
- acetate level in biofilm supernatant ([10]; substrate 1 M): 1934 ± 56*^, #1 mg/L
- butyrate level in biofilm supernatant ([10]; substrate 1 M): 86 ± 15*^, #1, 2 mg/L
- formate level in biofilm supernatant ([10]; substrate 1 M): 398 ± 12 mg/L
- lactate level in biofilm supernatant ([10]; substrate 1 M): 125 ± 0 mg/L
- propionate level in biofilm supernatant ([10]; substrate 1 M): 2821 ± 127 mg/L
- acetate level in biofilm supernatant [10, 13]: 1934 ± 56 mg/L
- butyrate level in biofilm supernatant [10, 13]: 85 ± 15 mg/L
- propionate level in biofilm supernatant [10, 13]: 2821 ± 127 mg/L
- Relative abundance Beneficials/Commensals ([11]; substrate 1%(w/v) in PBS): 84.18 ± 2.04 % (Geq/mL)
- Relative abundance Cariogenic Pathogens ([11]; substrate 1%(w/v) in PBS): 0.21 ± 0.04 % (Geq/mL)
- Relative abundance Periodontal Pathogens ([11]; substrate 1%(w/v) in PBS): 15.61 ± 2.00 % (Geq/mL)
- Relative abundance Beneficials/Commensals [11, 14]: 84.18±2.04 % (Geq/mL)
- Relative abundance Periodontal Pathogens [11, 14]: 15.61±2.00 % (Geq/mL)
- Relative abundance Beneficial or commensals ([11]; substrate 1 M in PBS): 96.83 ± 0.62 % (Geq/mL)
- Relative abundance Cariogenic Pathogens ([11]; substrate 1 M in PBS): 2.40 ± 0.85 % (Geq/mL)
- Relative abundance Periodontal Pathogens ([11]; substrate 1 M in PBS): 0.77 ± 0.82 *^, #1 % (Geq/mL)
- Relative abundance Beneficial or commensals [11, 15]: 96.83±0.62 % (Geq/mL)
- Relative abundance Periodontal Pathogens [11, 15]: 0.77±0.82 % (Geq/mL)
- Reduction of A. actinomycetemcomitans, F. nucleatum, P. gingivalis, A. naeslundii and A. viscosus numbers vs control ([11]; substrate 1 M, range over the species): −1.2 to −3.7 log(Geq/mL)
- Absolute abundance S. sal. (S. salivarius) ([12]; substrate 1%(w/v) in PBS): 2.89 ± 0.35 log(Geq/mL)
- Absolute abundance S. sal. (S. salivarius) ([12]; substrate 1 M in PBS): 3.63 ± 0.90 log(Geq/mL)
